Test results reported in US11730741B2, “6-chromanol derivatives for use as a medicament” (Sulfateq B.V., priority 2017, dated 2023).
Marks after values point to notes of the source that are not given here.

Tests used:
[1] = screening of a range of SUL compounds including trolox; cited from earlier work
[2] = tested on: experimental in vivo models of COPD; conditions: cited from earlier work
[3] = molecular target: T1, human α1 adrenoceptor subtype A (Homo sapiens, UniProt P35348); experiment: Intracellular calcium assay (FLIPR Calcium 6), phenylephrine-stimulated CHO cells overexpressing α1A adrenoceptor; type: cell-based; conditions: for logEC50 of phenylephrine-induced calcium influx, α1A: 30 min at 37° C.
T1 construct: expressed in transfected cells; host or cells: CHO-K1
T1 sequence (P35348 1-466): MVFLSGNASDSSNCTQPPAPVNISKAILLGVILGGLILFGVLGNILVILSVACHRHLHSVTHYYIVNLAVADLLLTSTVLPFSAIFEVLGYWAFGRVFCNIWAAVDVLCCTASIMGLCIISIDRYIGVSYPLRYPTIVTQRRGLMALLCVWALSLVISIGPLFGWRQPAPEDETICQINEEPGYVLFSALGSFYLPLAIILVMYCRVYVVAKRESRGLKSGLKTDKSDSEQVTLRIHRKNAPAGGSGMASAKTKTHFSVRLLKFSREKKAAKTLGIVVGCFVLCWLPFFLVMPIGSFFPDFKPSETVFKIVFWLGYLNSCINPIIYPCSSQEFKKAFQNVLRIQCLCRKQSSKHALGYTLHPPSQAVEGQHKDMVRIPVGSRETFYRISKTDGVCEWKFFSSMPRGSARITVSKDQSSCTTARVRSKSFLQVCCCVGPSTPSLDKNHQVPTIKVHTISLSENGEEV
Method: (§1) CHO—K1 cells were stably transfected with a plasmid containing human α1-AR subtypes A, B and D in separate cell lines in DMEM-F12 medium with 10% FBS, 1% penicillin-streptomycin and 200 μg/mL Geneticin (G418, Invitrogen, Carlsbad, Calif.).
(§2) On the next day, CHO cells were treated with either vehicle (0.1% DMSO) or SUL-150 resp. SUL-151 for 30 min at 37° C. and stimulated with a 3-fold dilution series of PE ([…]). [Ca^2+]i was measured using the fluorescent FLIPR Calcium 6 assay kit (Molecular Devices) in immortalized CHO cells stably expressing the α1 adrenoceptor.
(§3) Initially, calcium responses induced by non-cumulative concentration series of phenylephrine were investigated using fluorescent measurements in α1A adrenoceptor-overexpressing CHO cells treated with SUL-150 and SUL-151 (FIG. 4). Fluorescent measurement data was processed and analyzed in SoftMax Pro 7 and expressed as % of baseline AUC with a 3-fold multiplier using an average of first 10 measurement points as baseline.
(§4) The “Vehicle” used in all experiments is 0.1% DMSO solution.

[4] = tested on: isolated porcine intrarenal arteries; experiment: Myography: phenylephrine-induced constriction of isolated porcine intrarenal arteries; conditions: 30 min pre-incubation
Method: Porcine kidneys were obtained from a local slaughterhouse (Kroon Vlees, Gotenburgweg 30, 9723 ™ Groningen, The Netherlands) and transported on ice in normal physiological Krebs buffer containing 120 mM NaCl, 6 mM KCl, 2.5 mM CaCl2×2H2O, 1.2 mM MgCl2×6H2O, 1.2 mM NaH2PO4×H2O, 25 mM NaHCO3 and 11.4 mM D-(+)-Glucose monohydrate (all ingredients were purchased from Merck) in ultrapure water.
The renal artery tree was dissected from the kidney, cleaned of surrounding connective tissue and cut into equally-sized ring segments (2 mm in length). In some rings, endothelium denudation was performed by gentle rubbing of the intimal surface with a paper clip. Rings were mounted in organ baths as described previously (Buikema et al., 2000).
Arterial rings were washed thoroughly by replacing Krebs buffer and allowed to equilibrate for a period of 60 min under 1.4 g of resting tension before they were assessed for viability by inducing 2 subsequent constrictions with KCl (60 mM). […] After washout and stabilization, rings were treated for 30 minutes by incubation with vehicle (0.1% DMSO), SUL-121, SUL-150 or SUL-151, followed by subsequent incubation with cumulative doses of phenylephrine.
Dose-dependent constriction responses to phenylephrine (10^−8M-10^−4M) were recorded in isolated porcine intrarenal arteries. Buffer was warmed to 37° C. and aerated with 95% O2 and 5% CO2 before use.
Vascular constriction responses are expressed as percentage of final response to KCl. Data are expressed as mean±SEM. *p<0.05.
To explore the effects of 2R and 2S-(6-hydroxy-2,5,7,8-tetramethylchroman-2-yl)(piperazin-1-yl)methanone (resp. SUL-150 and SUL-151) on constriction of isolated porcine intrarenal arteries, cumulative dose response curves to the α1 adrenoceptor agonist phenylephrine (PE) were constructed in the presence and absence of SUL-150 resp SUL-151 (FIG. 1).

[5] = molecular target: T2, human α1 adrenoceptor subtype B (Homo sapiens, UniProt P35368); experiment: Intracellular calcium assay (FLIPR Calcium 6), phenylephrine-stimulated CHO cells overexpressing α1B adrenoceptor; type: cell-based; conditions: for logEC50 of phenylephrine-induced calcium influx, α1B: 30 min at 37° C.
T2 construct: expressed in transfected cells; host or cells: CHO-K1
T2 sequence (P35368 1-520): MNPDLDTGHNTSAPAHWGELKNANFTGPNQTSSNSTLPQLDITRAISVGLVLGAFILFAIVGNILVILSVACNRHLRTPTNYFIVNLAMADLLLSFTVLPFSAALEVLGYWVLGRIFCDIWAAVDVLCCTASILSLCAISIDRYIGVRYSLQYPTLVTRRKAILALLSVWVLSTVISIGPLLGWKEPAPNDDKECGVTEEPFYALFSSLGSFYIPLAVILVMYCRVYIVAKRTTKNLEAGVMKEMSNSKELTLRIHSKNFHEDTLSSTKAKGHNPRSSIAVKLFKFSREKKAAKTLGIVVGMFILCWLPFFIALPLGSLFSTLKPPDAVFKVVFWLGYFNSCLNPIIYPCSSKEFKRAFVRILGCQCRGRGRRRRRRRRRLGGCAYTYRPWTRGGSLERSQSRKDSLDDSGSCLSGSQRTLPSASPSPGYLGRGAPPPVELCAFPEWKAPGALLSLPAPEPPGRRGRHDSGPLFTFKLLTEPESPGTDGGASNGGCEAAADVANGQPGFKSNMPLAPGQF
Method: as §1, §2, §3, §4

α1A adrenoceptor = molecular target: T3, α1A adrenoceptor (Homo sapiens, UniProt P35348); experiment: Radioligand displacement binding assay with [7-Methoxy-3H]-prazosin in α1A adrenoceptor transgenic CHO cells
T3 construct: expressed in transfected cells; host or cells: CHO
T3 sequence (P35348 1-466): T1 sequence (P35348 1-466)
Excerpt: We therefore explored whether SUL-150 could directly interact with the α1 adrenoceptor as a receptor antagonist.

[6] = molecular target: T4, human α1 adrenoceptor subtype D (Homo sapiens, UniProt P25100); experiment: Intracellular calcium assay (FLIPR Calcium 6), phenylephrine-stimulated CHO cells overexpressing α1D adrenoceptor; type: cell-based; conditions: for logEC50 of phenylephrine-induced calcium influx, α1D: 30 min at 37° C.
T4 construct: expressed in transfected cells; host or cells: CHO-K1
T4 sequence (P25100 1-572): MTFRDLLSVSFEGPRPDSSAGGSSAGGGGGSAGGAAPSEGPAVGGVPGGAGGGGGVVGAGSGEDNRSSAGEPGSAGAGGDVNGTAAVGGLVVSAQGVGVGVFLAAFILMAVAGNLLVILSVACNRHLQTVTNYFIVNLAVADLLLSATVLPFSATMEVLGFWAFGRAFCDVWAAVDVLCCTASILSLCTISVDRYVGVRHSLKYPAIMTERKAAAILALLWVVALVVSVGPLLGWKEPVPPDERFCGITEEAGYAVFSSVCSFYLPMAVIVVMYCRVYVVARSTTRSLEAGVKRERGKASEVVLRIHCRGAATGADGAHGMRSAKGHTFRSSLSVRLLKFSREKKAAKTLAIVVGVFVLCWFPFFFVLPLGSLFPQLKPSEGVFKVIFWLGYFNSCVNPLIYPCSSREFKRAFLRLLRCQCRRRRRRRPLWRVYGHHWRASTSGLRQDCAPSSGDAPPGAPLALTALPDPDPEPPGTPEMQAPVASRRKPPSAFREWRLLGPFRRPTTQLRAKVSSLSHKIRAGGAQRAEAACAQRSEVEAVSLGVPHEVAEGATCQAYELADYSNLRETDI
Method: as §1, §2, §3, §4

[7] = in the presence of 10 μM compound
[8] = in the presence of 30 μM compound
[9] = in the presence of 100 μM compound

Compound | effect on PE-induced calcium transients, α1A subtype, in words [3] | logEC50 of phenylephrine-induced calcium influx, α1A ([3]; 10 μM compound) | logEC50 of phenylephrine-induced calcium influx, α1A ([3]; 30 μM compound) | logEC50 of phenylephrine-induced calcium influx, α1A ([3]; 100 μM compound) | logEC50 of phenylephrine-induced constriction responses [4, 7] | logEC50 of phenylephrine-induced constriction responses [4, 8] | logEC50 of phenylephrine-induced constriction responses [4, 9] | effect on PE-induced calcium transients, α1B subtype, in words [5] | effect on PE-induced calcium transients, α1D subtype, in words [6] | other results
Cc1c(C)c2c(c(C)c1O)CCC(C)(C(=O)N1CCNCC1)O2 (racemic) [SUL-121, (6-hydroxy-2,5,7,8-tetramethylchroman-2-yl)(piperazin-1-yl)methanone] |  |  |  |  |  |  |  |  |  | anti-oxidant effect [1]: very potent anti-oxidant effect; LPS-induced airway neutrophilia [2]: dose-dependently reduced; LPS-induced attenuation of H2S production [2]: dose-dependently reduced; neutrophilia-related as well as unrelated ROS production [2]: dose-dependently reduced; nuclear translocation of the antioxidative response regulator Nrf2 [2]: inhibited
Cc1c(C)c2c(c(C)c1O)CCC(C)(C(=O)N1CCNCC1)O2 (stereo not shown) [SUL-150, (6-hydroxy-2,5,7,8-tetramethylchroman-2-yl)(piperazin-1-yl)methanone] | shifted dose response curves rightwards | −7.62 ± 0.03 | −7.28 ± 0.03 | −6.88 ± 0.03 | −5.11 ± 0.09* | −5.06 ± 0.06* | −4.44 ± 0.09* | shifted dose response curves rightwards | shifted dose response curves rightwards | logEC50 of phenylephrine-induced calcium influx, α1B ([5]; 10 μM compound): −7.51 ± 0.08; logEC50 of phenylephrine-induced calcium influx, α1B ([5]; 30 μM compound): −7.24 ± 0.07; logEC50 of phenylephrine-induced calcium influx, α1B ([5]; 100 μM compound): −6.72 ± 0.08; potency in displacing the radioligand, compared to SUL-151, in words (α1A adrenoceptor): significantly more potent; logEC50 of phenylephrine-induced calcium influx, α1D ([6]; 10 μM compound): −7.37 ± 0.10; logEC50 of phenylephrine-induced calcium influx, α1D ([6]; 30 μM compound): −7.04 ± 0.06; logEC50 of phenylephrine-induced calcium influx, α1D ([6]; 100 μM compound): −6.80 ± 0.10
Cc1c(C)c2c(c(C)c1O)CC[C@@](C)(C(=O)N1CCNCC1)O2 [SUL-151, (2S)(6-hydroxy-2,5,7,8-tetramethylchroman-2-yl)(piperazin-1-yl)methanone] | did not affect calcium transients | −8.09 ± 0.10 | −8.09 ± 0.11 | −7.98 ± 0.10 | −5.82 ± 0.05 | −5.89 ± 0.04 | −5.77 ± 0.04 | did not affect calcium transients | did not affect calcium transients | concentrations at which [7-Methoxy-3H]-prazosin was displaced (α1A adrenoceptor): higher than 10 μM
